Laboratory results: BigSolDB 2.1

Clc1ccccc1C(c1ccccc1)(c1ccccc1)n1ccnc1
solubility (mole fraction)
Settings | 293.15 K | 298.15 K | 303.15 K | 308.15 K | 313.15 K
in n-hexane | 0.000222 | 0.000267 | 0.000319 | 0.000383 | 0.000455
in n-octanol | 0.0204 | 0.0249 | 0.0304 | 0.0372 | 0.045
